# What was measured:
# [1] = mouse writhing assay (acetic acid-induced); assay type: in vivo, mouse (Cox standard strain albino male mice); settings: oral gavage in corn oil-acacia emulsion (5%), three hours before acetic acid (0.60 percent) i.p., five mice per group; for ED50: Mus musculus, po, 3 h
# Text: The analgesic activity of a number of compounds provided by this invention has been determined in the standard mouse writhing assay. Writhing, which is characterized by contraction of the abdominal musculature, extension of the hindlegs, and rotation of the trunk, was induced in Cox standard strain albino male mice. The mice, weighing 18-24 grams, were fasted overnight and given the test compound by gavage in a corn oil-acacia emulsion (5%) three hours before writhing was induced by the intraperitoneal administration of acetic acid (0.60 percent). Each treatment group consisted of five mice. The total number of writhes for the treatment group was determined during a 10-minute observation starting five minutes after acetic acid administration. […] Table I which follows presents typical test results obtained with certain of the compounds of this invention. The results in the mouse writhing assay are presented as the effective oral (p.o.) dose in mg./kg. of the tested compound required to inhibit induced writhing in the test animals by fifty percent (ED50).
# [2] = Established adjuvant-induced arthritis test in rats, uninjected paw volume inflammation; assay type: in vivo, rat (male Lewis-Wistar rats); settings: Days 14 through 30, AUC difference
SMILES,ED50 [1] [mg/kg],% Inhibition of Uninjected Paw Volume Inflammation ([2]; 25 mg./kg. p.o. × 15) [%],% Inhibition of Uninjected Paw Volume Inflammation ([2]; 5 mg./kg. p.o. × 15) [%],% Inhibition of Uninjected Paw Volume Inflammation ([2]; 10 mg./kg. p.o. × 15) [%],further results
"COc1ccc(-c2ccc(-c3ccc(C(F)(F)F)cc3)nc2-c2ccc(OC)cc2)cc1 [Example 7, 6-(4-Trifluoromethylphenyl)-2,3-bis(4-methoxyphenyl)pyridine]",8.9,33,,,
"COc1ccc(-c2ccc(-c3ccc(F)cc3)nc2-c2ccc(OC)cc2)cc1 [Example 1, 6-(4-Fluorophenyl)-2,3-bis(4-methoxyphenyl)pyridine]",3.5,,70,80,
"COc1ccc(-c2ccc(-c3ccc(Cl)cc3)nc2-c2ccc(OC)cc2)cc1 [Example 3, 6-(4-Chlorophenyl)-2,3-bis(4-methoxyphenyl)pyridine]",0.78,,30,58,
"COc1ccc(-c2ccc(-c3ccc(Br)cc3)nc2-c2ccc(OC)cc2)cc1 [Example 4, 6-(4-Bromophenyl)-2,3-bis(4-methoxyphenyl)pyridine]",4.1,48,,27,
"COc1ccc(-c2ccc(-c3ccc(F)cc3)nc2-c2ccc(OC)cc2)cc1 [Example 6, 6-(4-Fluorophenyl)-2,3-bis(4-methoxyphenyl)pyridine 4-methylbenzenesulfonate]",,,,,"Mouse Writhing ED50 ([1]; 180 min, 4-methylbenzenesulfonate, 180 min): 4.2 mg./kg. p.o.; % Inhibition of Uninjected Paw Volume Inflammation ([2]; 5 mg./kg. p.o. × 15, 4-methylbenzenesulfonate): 69%; % Inhibition of Uninjected Paw Volume Inflammation ([2]; 10 mg./kg. p.o. × 15, 4-methylbenzenesulfonate): 71%"
"COc1ccc(-c2ccc(-c3ccccc3)nc2-c2ccc(OC)cc2)cc1 [Example 2, 6-Phenyl-2,3-bis(4-methoxyphenyl)pyridine]",2.7,,,,"% Inhibition of Uninjected Paw Volume Inflammation ([2]; 25 mg./kg. p.o. × 15, Average of two experiments): 40%"
